# Reference: ChEMBL document CHEMBL3885861, “Open TG-GATES”
# Organism: Rattus norvegicus
# Assay: Open TG-GATES - Regimen: Single
# Format: toxicity, organism-based, Sprague-Dawley
# Design: regimen Single, gender Male, age 6 weeks
# Details: in vivo, po, 300 mg/kg, route gavage, dose level Middle; for APTT / Bas / Eos / Fbg / Hb / Ht / Lym / MCH / MCHC / MCV / Mono / Neu / PT / Plat / RBC / Ret / WBC: tissue Blood; for KIDNEY_L / KIDNEY_R / KIDNEY_TOTAL: tissue Kidney; for LIVER: tissue Liver; for A/G / ALP / ALT / AST / BUN / CRE / Ca / Cl / DBIL / GLC / IP / K / LDH / Na / PL / RALB / TBIL / TC / TG / TP / gamma-GTP: tissue Plasma
structure (smiles),measurement,setting,value
Cc1nnc2n1-c1ccc(Cl)cc1C(c1ccccc1Cl)=NC2 [TRIAZOLAM],TERMINAL_BW,3 h,190.9 g
same,APTT,3 h,16.4 s
same,Bas,3 h,0.2%
same,Eos,3 h,1%
same,Fbg,3 h,270.4 mg/dL
same,Hb,3 h,13.9 g/dL
same,Ht,3 h,42.3%
same,Lym,3 h,73.8%
same,MCH,3 h,21 pg
same,MCHC,3 h,33%
same,MCV,3 h,63.6 fL
same,Mono,3 h,3%
same,Neu,3 h,21.4%
same,PT,3 h,13.4 s
same,Plat,3 h,117 x10_4/uL
same,RBC,3 h,665.8 x10_4/ul
same,Ret,3 h,9%
same,WBC,3 h,63.2 x10_2/uL
same,KIDNEY_L,3 h,0.8 g
same,KIDNEY_R,3 h,0.8 g
same,KIDNEY_TOTAL,3 h,1.7 g
same,LIVER,3 h,8.6 g
same,A/G,3 h,0.9
same,ALP,3 h,1451.2 IU/L
same,ALT,3 h,40.2 IU/L
same,AST,3 h,71 IU/L
same,BUN,3 h,9.6 mg/dL
same,CRE,3 h,0.1 mg/dL
same,Ca,3 h,11.3 mg/dL
same,Cl,3 h,103.2 meq/L
same,DBIL,3 h,0.008 mg/dL
same,GLC,3 h,189 mg/dL
same,IP,3 h,10.7 mg/dL
same,K,3 h,4.2 meq/L
same,LDH,3 h,79.4 IU/L
same,Na,3 h,141.4 meq/L
same,PL,3 h,169.4 mg/dL
same,RALB,3 h,2.5 g/dL
same,TBIL,3 h,0.066 mg/dL
same,TC,3 h,90.4 mg/dL
same,TG,3 h,60.8 mg/dL
same,TP,3 h,5.2 g/dL
same,gamma-GTP,3 h,1.8 IU/L
same,TERMINAL_BW,6 h,191.6 g
same,APTT,6 h,17.4 s
same,Bas,6 h,0%
same,Eos,6 h,0.4%
same,Fbg,6 h,282.8 mg/dL
same,Hb,6 h,13.8 g/dL
same,Ht,6 h,42.4%
same,Lym,6 h,77.2%
same,MCH,6 h,20.5 pg
same,MCHC,6 h,32.6%
same,MCV,6 h,63 fL
same,Mono,6 h,2.4%
same,Neu,6 h,18.8%
same,PT,6 h,13.5 s
same,Plat,6 h,123.3 x10_4/uL
same,RBC,6 h,674.2 x10_4/ul
same,Ret,6 h,9.2%
same,WBC,6 h,77.5 x10_2/uL
same,KIDNEY_L,6 h,0.9 g
same,KIDNEY_R,6 h,0.9 g
same,KIDNEY_TOTAL,6 h,1.8 g
same,LIVER,6 h,8.3 g
same,A/G,6 h,0.9
same,ALP,6 h,1395 IU/L
same,ALT,6 h,35.6 IU/L
same,AST,6 h,66.6 IU/L
same,BUN,6 h,10.2 mg/dL
same,CRE,6 h,0.1 mg/dL
same,Ca,6 h,11.2 mg/dL
same,Cl,6 h,103 meq/L
same,DBIL,6 h,0.01 mg/dL
same,GLC,6 h,183.4 mg/dL
same,IP,6 h,10.9 mg/dL
same,K,6 h,4.1 meq/L
same,LDH,6 h,63.2 IU/L
same,Na,6 h,141.8 meq/L
same,PL,6 h,147.6 mg/dL
same,RALB,6 h,2.5 g/dL
same,TBIL,6 h,0.068 mg/dL
same,TC,6 h,81.2 mg/dL
same,TG,6 h,37.6 mg/dL
same,TP,6 h,5.3 g/dL
same,gamma-GTP,6 h,1 IU/L
same,TERMINAL_BW,9 h,193.6 g
same,APTT,9 h,16.7 s
same,Bas,9 h,0%
same,Eos,9 h,0.8%
same,Fbg,9 h,279.6 mg/dL
same,Hb,9 h,13.5 g/dL
same,Ht,9 h,41.2%
same,Lym,9 h,74%
same,MCH,9 h,21.4 pg
same,MCHC,9 h,32.8%
same,MCV,9 h,65.5 fL
same,Mono,9 h,2.2%
same,Neu,9 h,22%
same,PT,9 h,13.5 s
same,Plat,9 h,121.1 x10_4/uL
same,RBC,9 h,629.6 x10_4/ul
same,Ret,9 h,9.5%
same,WBC,9 h,87.2 x10_2/uL
same,KIDNEY_L,9 h,0.9 g
same,KIDNEY_R,9 h,0.8 g
same,KIDNEY_TOTAL,9 h,1.7 g
same,LIVER,9 h,7.6 g
same,A/G,9 h,0.9
same,ALP,9 h,1488.6 IU/L
same,ALT,9 h,32 IU/L
same,AST,9 h,65.2 IU/L
same,BUN,9 h,10 mg/dL
same,CRE,9 h,0.2 mg/dL
same,Ca,9 h,11 mg/dL
same,Cl,9 h,104.4 meq/L
same,DBIL,9 h,0.01 mg/dL
same,GLC,9 h,188 mg/dL
same,IP,9 h,10.6 mg/dL
same,K,9 h,4.4 meq/L
same,LDH,9 h,57.4 IU/L
same,Na,9 h,141.2 meq/L
same,PL,9 h,144.2 mg/dL
same,RALB,9 h,2.4 g/dL
same,TBIL,9 h,0.058 mg/dL
same,TC,9 h,74.2 mg/dL
same,TG,9 h,49.4 mg/dL
same,TP,9 h,5.1 g/dL
same,gamma-GTP,9 h,1.2 IU/L
same,TERMINAL_BW,24 h,207.4 g
same,APTT,24 h,28.1 s
same,Bas,24 h,0%
same,Eos,24 h,1%
same,Fbg,24 h,263.2 mg/dL
same,Hb,24 h,13.5 g/dL
same,Ht,24 h,40.8%
same,Lym,24 h,74.8%
same,MCH,24 h,21 pg
same,MCHC,24 h,33%
same,MCV,24 h,63.6 fL
same,Mono,24 h,2.6%
same,Neu,24 h,21%
same,PT,24 h,13.3 s
same,Plat,24 h,127 x10_4/uL
same,RBC,24 h,643.6 x10_4/ul
same,Ret,24 h,8%
same,WBC,24 h,94.8 x10_2/uL
same,KIDNEY_L,24 h,0.9 g
same,KIDNEY_R,24 h,0.9 g
same,KIDNEY_TOTAL,24 h,1.8 g
same,LIVER,24 h,9.2 g
same,A/G,24 h,0.9
same,ALP,24 h,1802.4 IU/L
same,ALT,24 h,44.4 IU/L
same,AST,24 h,66.2 IU/L
same,BUN,24 h,11.8 mg/dL
same,CRE,24 h,0.2 mg/dL
same,Ca,24 h,11.3 mg/dL
same,Cl,24 h,102.8 meq/L
same,DBIL,24 h,0.018 mg/dL
same,GLC,24 h,180.2 mg/dL
same,IP,24 h,9.2 mg/dL
same,K,24 h,4.5 meq/L
same,LDH,24 h,73.6 IU/L
same,Na,24 h,140.8 meq/L
same,PL,24 h,155.2 mg/dL
same,RALB,24 h,2.6 g/dL
same,TBIL,24 h,0.058 mg/dL
same,TC,24 h,77.6 mg/dL
same,TG,24 h,88 mg/dL
same,TP,24 h,5.4 g/dL
same,gamma-GTP,24 h,1 IU/L
